Results reported in patent US20240226026A1, “BRANCHED TAIL LIPID COMPOUNDS AND COMPOSITIONS FOR INTRACELLULAR DELIVERY OF THERAPEUTIC AGENTS” (ModernaTX, Inc., priority 2021, published 2024).

How the values were obtained:
[1] = Encapsulation efficiency (% EE) of lipid nanoparticles; type: physicochemical; details: nanoparticles comprising the lipid
Method: For nanoparticle compositions including an RNA, a QUANT-IT™ RIBOGREEN® RNA assay (Invitrogen Corporation Carlsbad, CA) can be used to evaluate the encapsulation of an RNA by the nanoparticle composition. The samples are diluted to a concentration of approximately 5 μg/mL in a TE buffer solution (10 mM Tris-HCl, 1 mM EDTA, pH 7.5). 50 μL of the diluted samples are transferred to a polystyrene 96 well plate and either 50 μL of TE buffer or 50 μL of a 2% Triton X-100 solution is added to the wells. The plate is incubated at a temperature of 37° C. for 15 minutes. The RIBOGREEN® reagent is diluted 1:100 in TE buffer, and 100 μL of this solution is added to each well. The fluorescence intensity can be measured using a fluorescence plate reader (Wallac Victor 1420 Multilablel Counter; Perkin Elmer, Waltham, MA) at an excitation wavelength of, for example, about 480 nm and an emission wavelength of, for example, about 520 nm. The fluorescence values of the reagent blank are subtracted from that of each of the samples and the percentage of free RNA is determined by dividing the fluorescence intensity of the intact sample (without addition of Triton X-100) by the fluorescence value of the disrupted sample (caused by the addition of Triton X-100).
The efficiency of encapsulation of a therapeutic and/or prophylactic describes the amount of therapeutic and/or prophylactic that is encapsulated or otherwise associated with a lipid nanoparticle (e.g., an empty LNP or a loaded LNP) after preparation, relative to the initial amount provided. The encapsulation efficiency is desired to be high (e.g., close to 100%). The encapsulation efficiency may be measured, for example, by comparing the amount of therapeutic and/or prophylactic in a solution containing a loaded LNP before and after breaking up the loaded LNP with one or more organic solvents or detergents. Fluorescence may be used to measure the amount of free therapeutic and/or prophylactic (e.g., RNA) in a solution. For the loaded LNPs formulated with lipids of the disclosure, the encapsulation efficiency of a therapeutic and/or prophylactic is at least 50%, for example 50%, 55%, 60%, 65%, 70%, 75%, 80%, 85%, 90%, 91%, 92%, 93%, 94%, 95%, 96%, 97%, 98%, 99%, or 100%. In some embodiments, the encapsulation efficiency is at least 80%. In some embodiments, the encapsulation efficiency is at least 90%. In some embodiments, the encapsulation efficiency of the therapeutic and/or prophylactic agent is between 80% and 100%.
(§1) Lipid nanoparticles (e.g., empty LNPs or loaded LNPs) including DSPC as a phospholipid, cholesterol as a structural lipid, PL-II (e.g., PEG-1) as a PEG lipid, and a lipid according to Formula (I-1), (I), (I-A), (I-A1), (I-A2), (I-A3), or (I-A4) were prepared. In some embodiments, the lipid nanoparticles further included rhodamine-DOPE as a fluorescent lipid. Tables 2a, 2b, and 3 summarize the characteristics of the formulations.

[2] = Particle size (diameter) and polydispersity index of lipid nanoparticles; type: physicochemical; details: nanoparticles comprising the lipid
Method: A Zetasizer Nano ZS (Malvern Instruments Ltd, Malvern, Worcestershire, UK) can be used to determine the particle size, the polydispersity index (PDI) and the zeta potential of the nanoparticle compositions in 1×PBS in determining particle size and 15 mM PBS in determining zeta potential.
Lipid nanoparticles (e.g., empty LNPs or loaded LNPs) may be characterized by a variety of methods. For example, microscopy (e.g., transmission electron microscopy or scanning electron microscopy) may be used to examine the morphology and size distribution of a nanoparticle composition. Dynamic light scattering or potentiometry (e.g., potentiometric titrations) may be used to measure zeta potentials. Dynamic light scattering may also be utilized to determine particle sizes. Instruments such as the Zetasizer Nano ZS (Malvern Instruments Ltd, Malvern, Worcestershire, UK) may also be used to measure multiple characteristics of a nanoparticle composition, such as particle size, polydispersity index, and zeta potential.
as §1

[3] = Lipid nanoparticle surface hydrophobicity by Generalized Polarization by Laurdan (N-GP); type: physicochemical; details: for Lipid nanoparticle surface hydrophobicity (N-GP*): Table 2a, Laurdan, higher N-GP indicates a less polar surface; for LNP surface hydrophobicity (N-GP*): Table 2b, nanoparticles comprising the lipid
From the text: Surface hydrophobicity of nanoparticles of the disclosure can be measured by Generalized Polarization by Laurdan (GPL). In this method, Laurdan, a fluorescent aminonaphthalene ketone lipid, is post-inserted into the nanoparticle surface and the fluorescence spectrum of Laurdan is collected to determine the normalized Generalized Polarization (N-GP). In some embodiments, nanoparticles formulated with lipids of the disclosure have a surface hydrophobicity expressed as N-GP of between about 0.5 and about 1.5. For example, in some embodiments, nanoparticles formulated with lipids of the disclosure have a surface hydrophobicity expressed as N-GP of about 0.5, about 0.6, about 0.7, about 0.8, about 0.9, about 1.0, about 1.1, about 1.2, about 1.3, about 1.4, or about 1.5. In some embodiments, nanoparticles formulated with lipids of the disclosure have a surface hydrophobicity expressed as N-GP of about 1.0 or about 1.1.

CD-1 mice = assay: Expression of hEPO induced by LNPs (mRNA encoding hEPO) administered to mice; type: in vivo; details: Table 4a, serum, 6 h after intravenous injection; for Avg. hEPO Concentration (mIU/mL)* ± Avg. SD: ELLA Simple Plex Assay
Method: In some embodiments, hEPO concentrations were determined using an […] (ELLA) Simple Plex Assay (ProteinSimple) with a Human Erythroprotein cartridge. Standards for this assay are calibrated according to the 2. IRP WHO preparation. Nanoparticle compositions including mRNA are useful in the evaluation of the efficacy and usefulness of various formulations for the delivery of therapeutic and/or prophylactics. Higher levels of protein expression induced by administration of a composition including an mRNA will be indicative of higher mRNA translation and/or nanoparticle composition mRNA delivery efficiencies. As the non-RNA components are not thought to affect translational machineries themselves, a higher level of protein expression is likely indicative of a higher efficiency of delivery of the therapeutic and/or prophylactic by a given nanoparticle composition relative to other nanoparticle compositions or the absence thereof.
To assess potency of expression of lipids of the disclosure, the protein expression (hEPO) following administration of a nanoparticle comprising a lipid of the disclosure (e.g., a loaded LNP) to mice was measured.
Lipid nanoparticles (LNPs) including DSPC as a phospholipid, cholesterol as a structural lipid, PL-II (e.g., PEG-1) as a PEG lipid, a lipid according to Formula (I-1), (I), (I-A), (I-A1), (I-A2), (I-A3), or (I-A4), and an mRNA encoding hEPO were intravenously administered to CD-1 mice. The concentration of hEPO in serum was tested at 6 h after injection.

[4] = Apparent pKa of lipid nanoparticles; type: physicochemical; details: for Apparent pKa: Table 2a, nanoparticles comprising the lipid; for Apparent pKa 95% CI: Table 2b, 95% confidence interval
[5] = Table 2a, DSPC, cholesterol, PEG lipid

| SMILES | % EE ([1]; Table 2a) [%] | % EE ([1]; Table 3) [%] | PDI ([2]; Table 2a) | Diameter (nm) [2, 5] [nm] | Diameter (nm) ([2]; Table 3) | PDI ([2]; Table 3) | Lipid nanoparticle surface hydrophobicity (N-GP*) [3] | Avg. hEPO Concentration (mIU/mL) ± Avg. SD (CD-1 mice) [mIU/mL] | Apparent pKa [4] | % EE ([1]; Table 2b) [%] | Diameter (nm) ([2]; Table 2b) | PDI ([2]; Table 2b) | LNP surface hydrophobicity (N-GP*) [3] | Apparent pKa 95% CI [4] | Avg. hEPO Concentration (mIU/mL)* ± Avg. SD (CD-1 mice) [mIU/mL] |
| --- | --- | --- | --- | --- | --- | --- | --- | --- | --- | --- | --- | --- | --- | --- | --- |
| CCCCCC(CCCCC)CCOC(=O)CCCCCCCN(CCCCCCCC(=O)OCCC(CCCC)CCCC)CCCNS(=O)(=O)CC [Compound 12] | 80.9 | 94.1 | 0.248 | 120.2 | 109.2 | 0.155 | 1.04 | 5.83E+06 ± 1.13E+05 | 6.669 |  |  |  |  |  |  |
| CCCCCC(CCCCC)CCOC(=O)CCCCCCCN(CCCCCCCC(=O)OCCC(CCCC)CCCC)CCCNS(=O)(=O)Cc1ccon1 [Compound 13] | 61.0 | 96.1 | 0.205 | 109.5 | 76.1 | 0.118 | 1.08 | 1.41E+07 ± 2.72E+05 | 6.688 | 73.4 | 98.5 | 0.164 | 1.09 | 6.641 to 6.731 |  |
| CCCCCC(CCCCC)CCOC(=O)CCCCCCCN(CCCCCCCC(=O)OCCC(CCCC)CCCC)CCCNc1ncccc1N [Compound 14] |  | 98.6 |  |  | 111.7 | 0.282 |  |  |  | 94.4 | 184.7 | 0.366 | 1.00 | 6.808 to 6.931 | 5.96E+05 ± 9.17E+03 |
| CCCCCCCC(CCCCCCC)OC(=O)CCCCCCCN(CCCCCCCC(=O)OCCC(CCCC)CCCC)CCCNc1n[s+]([O-])nc1NC (stereo not shown) [Compound 15] | 96.6 | 97.2 | 0.128 | 76.4 | 74.2 | 0.212 | 0.94 | 3.74E+06 ± 1.61E+05 | 6.761 |  |  |  |  |  |  |
| CCCCCCCC(CCCCCCC)OC(=O)CCCCCCCN(CCCCCCCC(=O)OCCC(CCCC)CCCC)CCCNc1noc(N)n1 [Compound 16] |  | 97.7 |  |  | 56.8 | 0.113 |  |  |  | 98.2 | 70.9 | 0.118 | 1.19 | 6.344 to 6.479 | 6.19E+05 ± 1.05E+04 |
| CCCCCCCC(CCCCCCC)OC(=O)CCCCCCCN(CCCCCCCC(=O)OCCC(CCCC)CCCC)CCCNS(=O)(=O)CCOC [Compound 17] | 77.1 | 93.5 | 0.128 | 89.7 | 90 | 0.129 | 1.02 | 1.00E+07 ± 2.34E+05 | 6.689 |  |  |  |  |  |  |
| CCCCCCCC(CCCCCCC)OC(=O)CCCCCCCN(CCCCCCCC(=O)OCCC(CCCC)CCCC)CCCNC(=O)C1(C)CC1 [Compound 18] |  | 23.9 |  |  | 95.9 | 0.174 |  |  |  | 18.6 | 144.2 | 0.207 | 1.05 | 6.744 to 6.808 | 5.45E+06 ± 1.26E+05 |
| CCCCCCCC(CCCCCCC)OC(=O)CCCCCCCN(CCCCCCCC(=O)OCCC(CCCC)CCCC)CCCNS(=O)(=O)CC [Compound 19] | 77.2 | 94.5 | 0.127 | 82.8 | 84.5 | 0.129 | 1.00 | 1.36E+07 ± 2.52E+05 | 6.551 | 77.0 | 86.4 | 0.187 | 1.00 | 6.572 to 6.671 |  |
| CCCCCCCC(CCCCCCC)OC(=O)CCCCCCCN(CCCCCCCC(=O)OCCC(CCCC)CCCC)CCCNS(=O)(=O)Cc1ccon1 [Compound 20] |  | 87.5 |  |  | 66 | 0.106 |  |  |  | 84.0 | 76.7 | 0.132 | 1.00 | 6.441 to 6.526 | 5.30E+06 ± 1.59E+05 |
| CCCCCCCC(CCCCCCC)OC(=O)CCCCCCCN(CCCCCCCC(=O)OCCC(CCCC)CCCC)CCCNc1ncccc1N [Compound 21] |  | 98.4 |  |  | 92.8 | 0.255 |  |  |  | 97.9 | 98.9 | 0.305 | 1.18 | 6.685 to 6.778 | 8.77E+05 ± 1.73E+04 |
| CCCCCC(CCCCC)CCOC(=O)CCCCCCCN(CCCCCCCC(=O)OCCC(CCCCC)CCCCC)CCCNc1n[s+]([O-])nc1NC (stereo not shown) [Compound 22] | 95.6 | 97.2 | 0.104 | 78.3 | 83.4 | 0.195 | 1.03 | 7.14E+06 ± 1.53E+05 | 6.895 |  |  |  |  |  |  |
